Test results reported in patent publication US20260325417A1, “TOPICAL SKIN COMPOSITION CONTAINING 1,3-PROPANEDIOL AS ACTIVE INGREDIENT FOR MAINTAINING MICROBIOME BALANCE IN SKIN” (ACTIVON CO.,LTD., priority 2022, published 2026).

Legend:
S. epidermidis [1] = experiment: Combination of 1,3-propanediol and yeast extract, growth of beneficial bacteria; format: cell-based, Staphylococcus epidermidis; details: 1,3-propanediol 1.5 wt %; yeast extract 0.00 wt %
[2] = system: Staphylococcus aureus ATCC 6538; experiment: Growth of harmful skin bacteria, single culture with 1,3-propanediol (absorbance 600 nm); format: cell-based; details: for Effect on the growth of harmful bacteria (S. aureus): absorbance 600 nm, 2 to 16 hours vs control
Description: (§1) • 1) Staphylococcus epidermidis ATCC 12228 and Staphylococcus aureus ATCC 6538 strains were obtained from ThermoFisher Scientific and cultured in tryptic soy broth (culture conditions: 32° C. for 18 hours). After culturing, they were diluted with 0.85% NaCl to adjust the absorbance (600 nm) to 0.5-0.6. • 2) 1,3-propanediol was obtained from Sigma-Aldrich. • 3) 2-methyl-1,3-propanediol, 1,3-butanediol, 2,3-butanediol, 1,2-pentanediol, and 1,2-hexanediol were all obtained from Sigma-Aldrich. • 4) Fructan was obtained from Sigma-Aldrich. • 5) Yeast extract was obtained from Sigma-Aldrich.
The effect of 1,3-propanediol on the growth of Staphylococcus aureus ATCC 6538 was analyzed.
(§2) For this purpose, 1,3-propanediol was diluted with 10% tryptic soy broth to prepare concentrations of 0.05, 0.1, 0.2, 0.5, 1.0, 3.0, 5.0, 10, 20, and 25 wt %.
After adding 1,3-propanediol prepared at each concentration to 10% tryptic soy broth, S. aureus was inoculated to achieve a concentration of 1% (v/v).
(§3) Afterwards, the cells were cultured at a temperature of 32° C. for 24 hours, and the absorbance (600 nm) was measured at 2-hour intervals to analyze the growth of beneficial skin bacteria.
(§4) At this time, 10% tryptic soy broth to which 1,3-propanediol was not added was set as a control group.
The criteria for determining the effect on the growth of harmful bacteria were as follows: when the absorbance (600 nm) was measured while culturing for 2 to 16 hours after inoculation of S. aureus, if the absorbance was lower than that of 10% tryptic soy broth (control group) to which 1,3-propanediol was not added, it was determined that the growth of S. aureus was inhibited. If there was no difference in absorbance, it was determined that there was no effect.

[3] = system: Staphylococcus epidermidis ATCC 12228; experiment: Growth of beneficial skin bacteria, single culture with 1,3-propanediol (absorbance 600 nm); format: cell-based; details: for Effect on the growth of beneficial bacteria (S. epidermidis): absorbance 600 nm, 2 to 16 hours vs control
Description: as §1
The effect of 1,3-propanediol on the growth of Staphylococcus epidermidis ATCC 12228 was analyzed.
as §2
After adding the prepared 1,3-propanediol at each concentration to 10% tryptic soy broth, S. epidermidis was inoculated to achieve a concentration of 1% (v/v).
as §3, §4
The criteria for determining the effect on the growth of beneficial bacteria were as follows: when the absorbance (600 nm) was measured while culturing for 2 to 16 hours after inoculation of S. epidermidis, if the absorbance was higher than that of 10% tryptic soy broth (control group) to which 1,3-propanediol was not added, it was determined that the growth of S. epidermidis was promoted. If there was no difference, it was determined that there was no effect, and if the absorbance was lower, it was determined that there was inhibition. […] As a result, it can be seen that when the concentration of 1,3-propanediol is in a specific range exceeding 0.05 wt % and less than 20 wt %, it promotes the growth of S. epidermidis.

S. epidermidis [4] = experiment: Comparison of diol compounds, growth of beneficial bacteria; format: cell-based, Staphylococcus epidermidis; parameters: key to Effect on the growth of beneficial bacteria (S. epidermidis): ++: Growth promotion; +: No effect; −: Growth inhibition; − −: 50% or more growth inhibition
Description: (§5) FIG. 4 illustrates the results of a comparative analysis of the effects of diol compounds, specifically 1,3-propanediol, 2-methyl-1,3-propanediol, 1,3-butanediol, 2,3-butanediol, 1,2-pentanediol, and 1,2-hexanediol on the growth of harmful bacteria (upper graph) and beneficial bacteria (lower graph). FIG. 4A: 1,3-propanediol, FIG. 4B: 2-methyl-1,3-propanediol; FIG. 4C: 1,3-butanediol; FIG. 4D: 2,3-butanediol; FIG. 4E: 1,2-pentanediol; FIG. 4F: 1,2-Hexanediol.
as §1

S. aureus [5] = experiment: Comparison of diol compounds, growth of harmful bacteria; format: cell-based, Staphylococcus aureus
Description: as §5, §1

[6] = system: Staphylococcus aureus ATCC 6538; experiment: Combination of 1,3-propanediol and fructan, growth of harmful bacteria; format: cell-based; details: 1,3-propanediol 1.5 wt %; fructan 0.00 wt %
Description: as §1
(§6) In order to evaluate the effect of 1,3-propanediol and fructan on the skin microbiome, the effect on the growth rate of Staphylococcus epidermidis ATCC 12228, a representative beneficial skin bacterium, and Staphylococcus aureus ATCC 6538, a harmful skin bacterium, was confirmed. Staphylococcus epidermidis ATCC 12228 and Staphylococcus aureus ATCC 6538 were cultured in tryptic soy broth at 32° C. for 18 hours or more, then diluted with 0.85% NaCl and adjusted to have an absorbance (600 nm) of 0.5 to 0.6.
(§7) S. epidermidis and S. aureus prepared above were inoculated to achieve a concentration of 1% (v/v) in 10% tryptic soy broth to which 1,3-propanediol was added at a fixed concentration of 1.5 wt % and fructan was added at each concentration in the table below. […]

[7] = system: Staphylococcus epidermidis ATCC 12228; experiment: Combination of 1,3-propanediol and fructan, growth of beneficial bacteria; format: cell-based; details: 1,3-propanediol 1.5 wt %; fructan 0.00 wt %
Description: as §1, §6, §7

S. aureus [8] = experiment: Combination of 1,3-propanediol and yeast extract, growth of harmful bacteria; format: cell-based, Staphylococcus aureus; details: 1,3-propanediol 1.5 wt %; yeast extract 0.00 wt %
Description: as §1, §6, §7

[9] = when the concentration increases

OCCCO [1,3-propanediol]
Effect on the growth of beneficial bacteria (S. epidermidis) (S. epidermidis [1]): + (Mild growth promotion (change in absorbance (increase) 3%)) | Effect on the growth of harmful bacteria (S. aureus) ([2]; 0.05 wt %): No effect | Effect on the growth of harmful bacteria (S. aureus) ([2]; 0.1 wt %): No effect | Effect on the growth of harmful bacteria (S. aureus) ([2]; 0.2 wt %): No effect | Effect on the growth of harmful bacteria (S. aureus) ([2]; 0.5 wt %): No effect | Effect on the growth of harmful bacteria (S. aureus) ([2]; 1.0 wt %): No effect | Effect on the growth of harmful bacteria (S. aureus) ([2]; 3.0 wt %): Inhibited | Effect on the growth of harmful bacteria (S. aureus) ([2]; 5.0 wt %): Inhibited | Effect on the growth of harmful bacteria (S. aureus) ([2]; 10 wt %): Inhibited | Effect on the growth of harmful bacteria (S. aureus) ([2]; 20 wt %): Inhibited | Effect on the growth of harmful bacteria (S. aureus) ([2]; 25 wt %): Inhibited | Concentration that did not inhibit the growth of S. aureus ([2]; single culture): ≤ 1.0 wt % | Effect on the growth of beneficial bacteria (S. epidermidis) ([3]; 0.05 wt %): No effect | Effect on the growth of beneficial bacteria (S. epidermidis) ([3]; 0.1 wt %): Promoted | Effect on the growth of beneficial bacteria (S. epidermidis) ([3]; 0.2 wt %): Promoted | Effect on the growth of beneficial bacteria (S. epidermidis) ([3]; 0.5 wt %): Promoted | Effect on the growth of beneficial bacteria (S. epidermidis) ([3]; 1.0 wt %): Promoted | Effect on the growth of beneficial bacteria (S. epidermidis) ([3]; 3.0 wt %): Promoted | Effect on the growth of beneficial bacteria (S. epidermidis) ([3]; 5.0 wt %): Promoted | Effect on the growth of beneficial bacteria (S. epidermidis) ([3]; 10 wt %): Promoted | Effect on the growth of beneficial bacteria (S. epidermidis) ([3]; 20 wt %): No effect | Effect on the growth of beneficial bacteria (S. epidermidis) ([3]; 25 wt %): Inhibited | Concentration that inhibited the growth of S. epidermidis ([3]; single culture): exceeded 25 wt % | Effect on the growth of beneficial bacteria (S. epidermidis) (S. epidermidis [4]; diol compound 0.1 wt %): ++ | Effect on the growth of beneficial bacteria (S. epidermidis) (S. epidermidis [4]; diol compound 1 wt %): ++ | Effect on the growth of beneficial bacteria (S. epidermidis) (S. epidermidis [4]; diol compound 5 wt %): + | Effect on the growth of beneficial bacteria (S. epidermidis) (S. epidermidis [4]; diol compound 10 wt %): + | Effect on the growth of beneficial bacteria (S. epidermidis) (S. epidermidis [4]; diol compound 20 wt %): + | Growth of beneficial bacteria (summary) (S. epidermidis [4]; [9]): the growth of beneficial bacteria is promoted | Effect on the growth of harmful bacteria (S. aureus) (S. aureus [5]; diol compound 0.1 wt %): ++ | Effect on the growth of harmful bacteria (S. aureus) (S. aureus [5]; diol compound 1 wt %): ++ | Effect on the growth of harmful bacteria (S. aureus) (S. aureus [5]; diol compound 5 wt %): +++ (50% or more inhibition) | Effect on the growth of harmful bacteria (S. aureus) (S. aureus [5]; diol compound 10 wt %): +++ (50% or more inhibition) | Effect on the growth of harmful bacteria (S. aureus) (S. aureus [5]; diol compound 20 wt %): +++ (50% or more inhibition) | Growth of harmful bacteria (summary) (S. aureus [5]; [9]): the growth of harmful bacteria is inhibited | Effect on the growth of harmful bacteria (S. aureus) [6]: ++ (Significant growth inhibition (change in absorbance (decrease) 5%)) | Effect on the growth of beneficial bacteria (S. epidermidis) [7]: + (Mild growth promotion (change in absorbance (increase) 3%)) | Effect on the growth of harmful bacteria (S. aureus) (S. aureus [8]): ++ (Significant growth inhibition (change in absorbance (decrease) 5%))
